Experimental findings from ChEMBL document CHEMBL1201862, “PubChem BioAssay data set” (2004) are described below.

Common to all, as to format: functional
For test [1], the target named is ALK tyrosine kinase receptor (Homo sapiens, UniProt Q9UM73).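 Further: ALK tested as one member of a kinase panel screen.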
The target in test [2] is Cyclin-dependent kinase 19 (Homo sapiens, UniProt Q9BWU1). In words: Navigating the Kinome. Panel member name: CDC2L6.
Test [3] addresses T1, DNA dC->dU-editing enzyme APOBEC-3G (Homo sapiens, UniProt Q9HC16). In words: APOBEC3G deaminase inhibitors, SAR follow-up, biochemical, fluorescence, single-stranded DNA substrate (AID 602136). As to conditions: read-out: IC50_Mean.
In test [4] the target is T2, DNA dC->dU-editing enzyme APOBEC-3A (Homo sapiens, UniProt P31941). Description: Dose Response confirmation of small molecule APOBEC3A DNA Deaminase Inhibitors via a fluorescence-based single-stranded DNA deaminase assay. [Related pubchem assays (depositor defined):AID493011, AID493024].
T2 sequence (P31941 whole entry): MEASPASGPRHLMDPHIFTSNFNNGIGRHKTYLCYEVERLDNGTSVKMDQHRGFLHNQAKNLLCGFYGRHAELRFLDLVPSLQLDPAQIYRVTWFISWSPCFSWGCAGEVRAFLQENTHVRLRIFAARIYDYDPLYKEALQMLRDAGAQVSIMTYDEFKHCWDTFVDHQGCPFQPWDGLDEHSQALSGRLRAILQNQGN
Test [5] concerns the target T3, Microphthalmia-associated transcription factor (Homo sapiens, UniProt O75030).
T3 sequence (O75030 whole entry): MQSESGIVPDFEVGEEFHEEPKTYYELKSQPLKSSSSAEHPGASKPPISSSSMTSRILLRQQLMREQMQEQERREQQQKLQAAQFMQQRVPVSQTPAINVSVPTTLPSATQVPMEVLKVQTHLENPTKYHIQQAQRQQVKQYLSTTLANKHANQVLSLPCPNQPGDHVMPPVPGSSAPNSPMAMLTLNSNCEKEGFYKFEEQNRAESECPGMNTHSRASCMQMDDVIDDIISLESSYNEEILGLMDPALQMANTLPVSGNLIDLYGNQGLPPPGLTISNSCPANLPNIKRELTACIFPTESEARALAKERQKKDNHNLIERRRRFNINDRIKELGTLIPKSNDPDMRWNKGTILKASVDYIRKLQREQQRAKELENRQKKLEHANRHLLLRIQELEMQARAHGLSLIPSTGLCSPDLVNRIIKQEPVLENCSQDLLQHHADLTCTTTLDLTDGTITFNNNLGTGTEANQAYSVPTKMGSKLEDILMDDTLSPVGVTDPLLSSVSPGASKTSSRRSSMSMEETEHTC
Description: TRPM1 promoter luciferase signal decrease, dose response, MITF inhibitor project, cell-based, SK-MEL-5, cherry-picked, set 3 (AID 493073).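 Further: SK-MEL-5 melanoma cells with luciferase driven by the MITF target TRPM1 promoter.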

The target of test [6] is T2, DNA dC->dU-editing enzyme APOBEC-3A. Description: SAR analysis of small molecule inhibitors of APOBEC3A DNA Deaminase via a fluorescence-based single-stranded DNA deaminase assay. The note with it: read-out: IC50_Mean.
Test [7] shares this target. In words: SAR analysis of small molecule inhibitors of APOBEC3A DNA Deaminase via a fluorescence-based single-stranded DNA deaminase assay - Set 2. As to conditions: read-out: IC50_Mean.
In test [8] the target is T1, DNA dC->dU-editing enzyme APOBEC-3G. Description: SAR analysis of small molecule inhibitors of APOBEC3G DNA Deaminase via a fluorescence-based single-stranded DNA deaminase assay - Set 2. As to conditions: read-out: IC50_Mean.
For test [9], the target named is T4, Alkaline phosphatase, tissue-nonspecific isozyme (Homo sapiens, UniProt P05186).
T4 sequence (P05186 whole entry): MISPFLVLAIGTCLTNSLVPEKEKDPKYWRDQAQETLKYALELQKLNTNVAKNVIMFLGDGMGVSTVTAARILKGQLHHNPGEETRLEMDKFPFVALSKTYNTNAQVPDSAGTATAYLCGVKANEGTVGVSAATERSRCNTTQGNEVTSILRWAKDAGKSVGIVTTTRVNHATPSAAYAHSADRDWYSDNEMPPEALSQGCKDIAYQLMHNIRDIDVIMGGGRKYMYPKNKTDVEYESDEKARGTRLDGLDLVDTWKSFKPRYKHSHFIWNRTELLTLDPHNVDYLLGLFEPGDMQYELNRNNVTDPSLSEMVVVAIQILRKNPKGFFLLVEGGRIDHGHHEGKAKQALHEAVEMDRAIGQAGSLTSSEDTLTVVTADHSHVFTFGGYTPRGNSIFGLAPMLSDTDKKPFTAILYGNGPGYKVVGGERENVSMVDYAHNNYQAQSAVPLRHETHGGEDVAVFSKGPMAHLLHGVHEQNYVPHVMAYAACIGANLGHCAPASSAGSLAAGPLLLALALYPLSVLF
Description: TNAP enzyme inhibition by screening hits, dose response, selectivity assay for mouse IAP inhibitor project, biochemical, human TNAP, uHTS hits (AID 488906).

The target of test [10] is Intestinal-type alkaline phosphatase (Homo sapiens, UniProt P09923). Description: inhibition of human intestinal alkaline phosphatase – biochemical, dose response (AID 488876).
Intestinal-type alkaline phosphatase (Homo sapiens, UniProt P09923), sequence (P09923 whole entry): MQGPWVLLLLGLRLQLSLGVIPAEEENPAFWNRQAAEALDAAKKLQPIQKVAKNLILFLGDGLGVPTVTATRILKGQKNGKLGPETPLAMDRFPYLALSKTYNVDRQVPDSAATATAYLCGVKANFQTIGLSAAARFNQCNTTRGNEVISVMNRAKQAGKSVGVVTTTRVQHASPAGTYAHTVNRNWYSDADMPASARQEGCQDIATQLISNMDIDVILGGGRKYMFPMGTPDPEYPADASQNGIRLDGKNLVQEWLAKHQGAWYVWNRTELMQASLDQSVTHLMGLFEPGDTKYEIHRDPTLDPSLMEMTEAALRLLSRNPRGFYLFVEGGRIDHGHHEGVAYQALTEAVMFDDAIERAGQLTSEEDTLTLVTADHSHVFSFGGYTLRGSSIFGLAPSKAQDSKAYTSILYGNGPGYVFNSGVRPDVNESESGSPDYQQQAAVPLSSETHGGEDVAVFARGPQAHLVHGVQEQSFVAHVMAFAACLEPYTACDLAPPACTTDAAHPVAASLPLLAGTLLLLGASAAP
Test [11] addresses T1, DNA dC->dU-editing enzyme APOBEC-3G.
Test [12] deals with Intestinal-type alkaline phosphatase (Mus musculus, UniProt P24822). Description: PubChem AID 488785.
Test [13] concerns the target cAMP-dependent protein kinase catalytic subunit alpha (Homo sapiens, UniProt P17612).
Test [14] concerns the target Homeodomain-interacting protein kinase 2 (Homo sapiens, UniProt Q9H2X6).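 Further: measured within a kinome-wide kinase profiling panel, HIPK2 being one panel member.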
For test [15], the target named is Cell division cycle 7-related protein kinase (Homo sapiens, UniProt O00311).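 Further: value obtained from a kinome-wide kinase panel.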
Cell division cycle 7-related protein kinase, sequence (O00311 whole entry): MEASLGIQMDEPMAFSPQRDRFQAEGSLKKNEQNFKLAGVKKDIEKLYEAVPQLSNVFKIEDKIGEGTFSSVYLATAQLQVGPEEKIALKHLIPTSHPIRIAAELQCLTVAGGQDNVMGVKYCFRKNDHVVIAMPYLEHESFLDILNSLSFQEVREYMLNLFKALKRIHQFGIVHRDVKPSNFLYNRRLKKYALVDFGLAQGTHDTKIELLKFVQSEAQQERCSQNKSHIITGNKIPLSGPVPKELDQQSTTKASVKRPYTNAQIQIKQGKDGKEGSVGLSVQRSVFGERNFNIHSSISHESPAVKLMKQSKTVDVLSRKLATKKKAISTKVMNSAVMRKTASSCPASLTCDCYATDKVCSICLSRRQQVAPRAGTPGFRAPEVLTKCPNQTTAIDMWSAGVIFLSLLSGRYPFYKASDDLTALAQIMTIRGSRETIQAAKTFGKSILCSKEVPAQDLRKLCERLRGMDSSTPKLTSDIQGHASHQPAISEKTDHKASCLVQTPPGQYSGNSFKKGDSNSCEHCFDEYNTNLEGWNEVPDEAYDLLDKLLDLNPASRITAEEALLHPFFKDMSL
Test [16] addresses Mitogen-activated protein kinase kinase kinase kinase 4 (Homo sapiens, UniProt O95819).
The target in test [17] is Dual specificity protein kinase CLK4 (Homo sapiens, UniProt Q9HAZ1).
For test [18], the target named is Glycogen synthase kinase-3 beta (Homo sapiens, UniProt P49841).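 Further: value comes from a broad kinome profiling panel, with GSK3B as the panel member.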
Glycogen synthase kinase-3 beta, sequence (P49841 whole entry): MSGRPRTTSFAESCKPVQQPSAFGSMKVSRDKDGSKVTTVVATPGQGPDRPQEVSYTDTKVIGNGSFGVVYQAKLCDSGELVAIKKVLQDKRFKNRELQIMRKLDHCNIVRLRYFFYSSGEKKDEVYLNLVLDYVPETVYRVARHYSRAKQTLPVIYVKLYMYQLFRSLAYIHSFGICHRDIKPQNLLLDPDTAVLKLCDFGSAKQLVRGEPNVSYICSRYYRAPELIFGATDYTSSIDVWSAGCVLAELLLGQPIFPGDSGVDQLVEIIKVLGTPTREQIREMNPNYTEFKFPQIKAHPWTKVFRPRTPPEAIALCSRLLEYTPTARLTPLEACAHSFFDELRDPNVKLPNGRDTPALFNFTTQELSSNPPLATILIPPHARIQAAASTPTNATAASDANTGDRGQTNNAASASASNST
In test [19] the target is Serine/threonine-protein kinase pim-1 (Homo sapiens, UniProt P11309).
Serine/threonine-protein kinase pim-1, sequence (P11309 whole entry): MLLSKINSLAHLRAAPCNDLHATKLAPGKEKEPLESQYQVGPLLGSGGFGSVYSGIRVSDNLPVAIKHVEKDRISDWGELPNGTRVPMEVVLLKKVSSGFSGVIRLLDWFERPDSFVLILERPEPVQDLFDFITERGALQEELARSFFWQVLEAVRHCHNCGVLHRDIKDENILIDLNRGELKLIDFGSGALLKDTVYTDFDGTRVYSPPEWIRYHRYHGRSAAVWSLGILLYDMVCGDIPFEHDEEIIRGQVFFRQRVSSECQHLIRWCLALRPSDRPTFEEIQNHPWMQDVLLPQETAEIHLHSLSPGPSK
Test [20] deals with Interleukin-1 receptor-associated kinase 4 (Homo sapiens, UniProt Q9NWZ3).
Interleukin-1 receptor-associated kinase 4, sequence (Q9NWZ3 whole entry): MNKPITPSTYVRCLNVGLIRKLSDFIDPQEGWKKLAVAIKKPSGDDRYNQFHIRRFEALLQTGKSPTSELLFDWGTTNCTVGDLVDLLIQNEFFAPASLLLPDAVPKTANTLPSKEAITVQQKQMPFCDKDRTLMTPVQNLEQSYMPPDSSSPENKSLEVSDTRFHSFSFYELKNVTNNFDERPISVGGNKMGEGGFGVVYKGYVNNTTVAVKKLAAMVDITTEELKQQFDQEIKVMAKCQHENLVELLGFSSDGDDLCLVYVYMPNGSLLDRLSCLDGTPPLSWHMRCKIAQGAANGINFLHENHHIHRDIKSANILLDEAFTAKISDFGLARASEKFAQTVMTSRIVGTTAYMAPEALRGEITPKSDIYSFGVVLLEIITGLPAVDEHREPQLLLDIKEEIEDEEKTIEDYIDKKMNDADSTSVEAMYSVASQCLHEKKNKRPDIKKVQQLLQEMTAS

Each structure is given as a SMILES string. Calls of active or inactive are those of the source.

T1 sequence (Q9HC16 whole entry): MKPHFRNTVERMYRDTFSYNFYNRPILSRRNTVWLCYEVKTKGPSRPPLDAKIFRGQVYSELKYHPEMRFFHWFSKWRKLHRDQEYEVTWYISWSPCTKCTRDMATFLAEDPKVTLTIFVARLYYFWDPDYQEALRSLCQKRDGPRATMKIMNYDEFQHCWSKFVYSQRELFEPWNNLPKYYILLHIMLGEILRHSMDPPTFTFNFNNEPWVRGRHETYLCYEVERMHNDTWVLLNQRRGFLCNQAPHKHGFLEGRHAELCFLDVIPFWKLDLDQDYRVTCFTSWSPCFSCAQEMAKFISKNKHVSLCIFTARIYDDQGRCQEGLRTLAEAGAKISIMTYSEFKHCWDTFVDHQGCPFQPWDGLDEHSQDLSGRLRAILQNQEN
Cyclin-dependent kinase 19, sequence (Q9BWU1 whole entry): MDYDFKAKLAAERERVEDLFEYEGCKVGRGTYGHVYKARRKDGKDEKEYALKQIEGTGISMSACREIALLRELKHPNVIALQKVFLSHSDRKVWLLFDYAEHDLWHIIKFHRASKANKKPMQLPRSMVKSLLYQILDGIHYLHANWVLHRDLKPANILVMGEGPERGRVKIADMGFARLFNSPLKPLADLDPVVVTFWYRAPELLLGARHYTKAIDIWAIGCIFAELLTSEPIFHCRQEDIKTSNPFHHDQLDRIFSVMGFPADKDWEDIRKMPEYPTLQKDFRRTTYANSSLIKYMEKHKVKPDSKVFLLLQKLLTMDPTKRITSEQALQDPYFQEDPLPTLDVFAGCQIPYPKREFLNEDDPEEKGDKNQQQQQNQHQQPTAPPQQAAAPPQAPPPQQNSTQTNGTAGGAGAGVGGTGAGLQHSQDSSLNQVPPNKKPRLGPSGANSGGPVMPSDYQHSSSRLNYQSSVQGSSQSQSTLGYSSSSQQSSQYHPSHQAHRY
Homeodomain-interacting protein kinase 2, sequence (Q9H2X6 whole entry): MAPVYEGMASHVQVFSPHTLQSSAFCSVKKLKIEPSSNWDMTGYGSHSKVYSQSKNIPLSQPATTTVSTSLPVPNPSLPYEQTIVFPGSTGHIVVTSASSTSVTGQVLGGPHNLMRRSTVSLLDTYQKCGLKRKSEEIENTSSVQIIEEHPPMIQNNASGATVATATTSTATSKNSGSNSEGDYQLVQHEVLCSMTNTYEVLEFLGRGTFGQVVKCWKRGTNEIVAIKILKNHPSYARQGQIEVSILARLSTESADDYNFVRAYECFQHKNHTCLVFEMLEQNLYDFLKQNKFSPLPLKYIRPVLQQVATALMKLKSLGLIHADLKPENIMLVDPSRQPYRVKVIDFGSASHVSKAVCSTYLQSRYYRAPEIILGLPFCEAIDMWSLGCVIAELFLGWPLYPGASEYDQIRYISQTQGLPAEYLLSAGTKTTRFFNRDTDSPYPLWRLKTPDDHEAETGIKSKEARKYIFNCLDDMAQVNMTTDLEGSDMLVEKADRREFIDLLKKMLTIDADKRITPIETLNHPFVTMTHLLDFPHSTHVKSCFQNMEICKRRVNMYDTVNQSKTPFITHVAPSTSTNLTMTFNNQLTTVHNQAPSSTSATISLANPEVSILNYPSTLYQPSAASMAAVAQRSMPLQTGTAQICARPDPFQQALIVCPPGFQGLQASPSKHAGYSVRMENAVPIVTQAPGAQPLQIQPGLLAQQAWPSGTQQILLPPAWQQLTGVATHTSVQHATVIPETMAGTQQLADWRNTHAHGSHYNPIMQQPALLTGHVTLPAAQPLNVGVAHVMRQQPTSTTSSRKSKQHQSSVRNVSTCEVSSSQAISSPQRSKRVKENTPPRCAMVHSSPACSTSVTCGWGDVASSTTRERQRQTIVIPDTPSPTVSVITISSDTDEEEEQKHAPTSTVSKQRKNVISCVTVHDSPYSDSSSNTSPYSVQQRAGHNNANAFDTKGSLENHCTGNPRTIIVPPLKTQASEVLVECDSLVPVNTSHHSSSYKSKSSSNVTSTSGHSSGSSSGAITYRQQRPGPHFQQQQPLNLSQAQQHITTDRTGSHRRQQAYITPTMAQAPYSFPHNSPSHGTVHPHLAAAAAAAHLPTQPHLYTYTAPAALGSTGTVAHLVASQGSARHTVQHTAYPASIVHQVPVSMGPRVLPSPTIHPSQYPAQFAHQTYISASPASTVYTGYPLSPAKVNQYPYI

`CCNC(=O)c1cnc(N)c2c(-c3ccc(NC(=O)Nc4cccc(Cl)c4)cc3)csc12`: the inhibitory constant (Ki) was 0.158 µM (active) in test [1] and > 100 µM (inactive) in test [2].

On to `Cn1nc([N+](=O)[O-])nc1S(C)(=O)=O`, for which the IC50 in test [3] is 27.2 µM (inactive); in test [4], 4.14 µM (active); in test [6], 14.4 µM (inactive); in test [7], 13.1 µM (inactive); in test [8], 24.1 µM (inactive); in test [9] it was 74.1 µM (active). Besides, the IC50 in test [10] is > 100 µM (inactive); in [11], 65.5 µM (active); in test [12], 5.66 µM (active). The AC50 in test [5] is 9.2 µM (active).

As to `COc1ccccc1C(=O)Nc1n[nH]c2ccc(-c3cn(Cc4ccccc4)nn3)cc12`, the Ki in [13] was > 7.94 µM (inactive); in test [14] it was 0.02 µM (active); in [15] it was 0.00398 µM (active); in test [16], 0.0794 µM (active); in [17], 0.00398 µM (active); in [18] it was 0.00501 µM (active). Also, the results for the inhibitory constant (Ki) in test [19] and in test [20] were 0.501 µM (active) and > 10 µM (inactive), respectively.

As a reminder, the Ki is the dissociation constant of the complex between target and ligand, obtained from inhibition or displacement. Broadly, the AC50 is the concentration at which the activity in the assay is half-maximal.
